Laboratory results as given in US20120264827A1, “SULFANYLAMIDE DERIVATIVES, USES THEREOF AND COMPOSITIONS COMPRISING THEM” (YISSUM RESEARCH DEVELOPMENT COMPANY OF THE HEBREW …, priority 2009, published 2012).
Read-outs that look alike come from different tables or passages of the source.

How the values were obtained:
[1] = tested on: subcutaneous metrazol (pentylenetetrazol) seizure; experiment: Subcutaneous metrazol seizure threshold test (scMet), mice, intraperitoneal; type: in vivo; details: ip;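 note: adult male CF no. 1 albino mice weighing 18-25 g, dosed intraperitoneally with compounds suspended in 0.5% methylcellulose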
[2] = tested on: maximal electroshock seizure (MES); experiment: Maximal electroshock seizure test (MES), mice, intraperitoneal; type: in vivo; details: ip;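 note: adult male CF no. 1 albino mice of 18–25 g, given compound intraperitoneally as a 0.5% methylcellulose suspension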
[3] = tested on: maximal electroshock seizure (MES); experiment: Maximal electroshock seizure test (MES), rats, oral; details: Rattus norvegicus, po, read-out: Anti-MES activity (number of animals protected/number of animals tested);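 note: adult male Sprague-Dawley rats received test compounds by mouth as a suspension in 0.5% methylcellulose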
Experimental: The tested compounds were suspended in 0.5% methylcellulose and administered (a) intraperitioneally (ip) to adult male CF no. 1 albino mice (18-25 g) in volume of 0.01 mL/g body weight and (b) orally to adult male Sprague-Dawley albino rats (100-150 g) in volume of 0.04 mL per 10 g of body weight.
The TD50 was determined by varying the dose of the tested compounds until four points were established between the dose level that induced no signs of minimal motor impairment in any of the animals and the dose at which all the animals were considered impaired. […] The PIs were calculated by dividing the TD50 by the ED50.

[4] = 30 mg/kg, 0.5 h after administration
[5] = 30 mg/kg, 4 h after administration
[6] = 100 mg/kg, 0.5 h after administration
[7] = 100 mg/kg, 4 h after administration
[8] = 300 mg/kg, 0.5 h after administration
[9] = 300 mg/kg, 4 h after administration

Structure (SMILES) | scMet (number of animals protected/number of animals tested) [1, 4] | scMet (number of animals protected/number of animals tested) [1, 5] | scMet (number of animals protected/number of animals tested) [1, 6] | scMet (number of animals protected/number of animals tested) [1, 7] | scMet (number of animals protected/number of animals tested) [1, 8] | scMet (number of animals protected/number of animals tested) [1, 9] | MES (number of animals protected/number of animals tested) [2, 4] | MES (number of animals protected/number of animals tested) [2, 5] | MES (number of animals protected/number of animals tested) [2, 6] | MES (number of animals protected/number of animals tested) [2, 7] | MES (number of animals protected/number of animals tested) [2, 8] | MES (number of animals protected/number of animals tested) [2, 9] | responders at 30 mg/kg ([3]; 0.5 h) [%] | responders at 30 mg/kg ([3]; 1 h) [%] | responders at 30 mg/kg ([3]; 2 h) [%] | responders at 30 mg/kg ([3]; 4 h) [%] | responders at 30 mg/kg ([3]; […]) [%]
CCCC(CC)C(=O)Nc1ccc(S(N)(=O)=O)cc1 (centres unmarked) [Compound 17, 2-Ethyl-N-(4-sulfamoyl-phenyl)-pentanamide] | 0/1 0/1 0/1 | 0/1 0/1 0/1 | 0/1 0/1 0/1 | 0/1 0/1 0/1 | 0/1 0/1 0/1 | 0/1 0/1 0/1 | 0/1 | 0/1 | 0/3 | 1/3 | 0/1 | 1/1 |  |  |  |  | 
CCCC(C(=O)Nc1ccc(S(N)(=O)=O)cc1)C(C)(C)C (centres unmarked) [Compound 22, 2-tert-Butyl-N-(4-sulfamoyl-phenyl)-pentanamide] | 0/1 0/1 0/1 | 0/1 0/1 0/1 | 0/1 0/1 0/1 | 0/1 0/1 0/1 | 0/1 0/1 0/1 | 0/1 0/1 0/1 | 0/1 | 0/1 | 0/3 | 0/3 | 0/1 | 0/1 |  |  |  |  | 
CC(C)C(C(=O)Nc1ccc(S(N)(=O)=O)cc1)C(C)(C)C (centres unmarked) [Compound 14, 2-Isopropyl-3,3-dimethyl-N-(4-sulfamoyl-phenyl)-butyramide] | 0/1 0/1 0/1 | 0/1 0/1 0/1 | 0/1 0/1 0/1 | 0/1 0/1 0/1 | 0/1 0/1 0/1 | 0/1 0/1 0/1 | 0/1 | 0/1 | 0/3 | 3/3 | 0/1 | 1/1 |  |  |  |  | 
CC(C)C(C(=O)Nc1ccc(S(N)(=O)=O)cc1)C(C)C [Compound 13, 2-Isopropyl-3-methyl-N-(4-sulfamoyl-phenyl)-butyramide] | 0/1 0/1 0/1 | 0/1 0/1 0/1 | 0/1 0/1 0/1 | 0/1 0/1 0/1 | 0/1 0/1 0/1 | 0/1 0/1 0/1 | 0/1 | 0/1 | 0/3 | 0/3 | 0/1 | 0/1 | 0 | 0 | 0 | 50 | 0
CCC(CC)C(=O)NCCc1ccc(S(N)(=O)=O)cc1 [Compound 29, 2-Ethyl-N-[2-(4-sulfamoyl-phenyl)-ethyl]-butyramide] | 0/1 0/1 0/1 | 0/1 0/1 0/1 | 0/1 0/1 0/1 | 0/1 0/1 0/1 | 0/1 0/1 0/1 | 0/1 0/1 0/1 | 0/1 | 1/1 | 0/3 | 1/3 | 0/1 | 1/1 | 50 | 75 | 25 | 25 | 25
CCC(C)C(=O)Nc1ccc(S(N)(=O)=O)cc1 (centres unmarked) [Compound 10, 2-Methyl-N-(4-sulfamoyl-phenyl)-butyramide] | 0/1 0/1 0/1 | 0/1 0/1 0/1 | 0/1 0/1 0/1 | 0/1 0/1 0/1 | 0/1 0/1 0/1 | 0/1 0/1 0/1 | 1/1 | 1/1 | 3/3 | 3/3 | 1/1 | 1/1 | 50 | 100 | 100 | 100 | 50
CCC(C)CC(=O)Nc1ccc(S(N)(=O)=O)cc1 (centres unmarked) [Compound 24, 3-Methyl-N-(4-sulfamoyl-phenyl)-pentanamide] | 0/1 0/1 0/1 | 0/1 0/1 0/1 | 0/1 0/1 0/1 | 0/1 0/1 0/1 | 0/1 0/1 0/1 | 0/1 0/1 0/1 | 0/1 | 0/1 | 0/3 | 0/3 | 0/1 | 0/1 |  |  |  |  | 
CCC(C(=O)Nc1ccc(S(N)(=O)=O)cc1)C(C)(C)C (centres unmarked) [Compound 12, 2-Ethyl-3,3-dimethyl-N-(4-sulfamoyl-phenyl)-butyramide] | 0/1 0/1 0/1 | 0/1 0/1 0/1 | 0/1 0/1 0/1 | 0/1 0/1 0/1 | 0/1 0/1 0/1 | 0/1 0/1 0/1 | 0/1 | 0/1 | 0/3 | 1/3 | 0/1 | 1/1 |  |  |  |  | 
CC(C)(C)CC(=O)Nc1ccc(S(N)(=O)=O)cc1 [Compound 15, 3,3-Dimethyl-N-(4-sulfamoyl-phenyl)-butyramide] | 0/1 0/1 0/1 | 0/1 0/1 0/1 | 0/1 0/1 0/1 | 0/1 0/1 0/1 | 0/1 0/1 0/1 | 0/1 0/1 0/1 | 0/1 | 0/1 | 5/7 | 1/3 | 4/5 | 1/1 | 25 | 75 | 100 | 100 | 75
